Measured values: US20250243488A1, “METHODS OF MODULATING PROGRANULIN EXPRESSION USING ANTISENSE OLIGONUCLEOTIDES TARGETING REGULATORY RNAS” (Camp4 Therapeutics Corporation, priority 2022, published 2025)
Oligonucleotides are written 5' to 3', each unit as a sugar letter and its base; * is a phosphorothioate linkage, no mark a phosphodiester; rarer units and linkages stand in square brackets, end groups in braces. Plain capitals give the bases only. e = 2'-O-(2-methoxyethyl) (MOE); l = locked nucleic acid (LNA); [5mC] = 5-methylcytosine; d = 2'-deoxy (DNA)

Tested on: GRN mRNA
Experiment: GRN mRNA qPCR in SK-N-AS cells transfected with ASOs
Format: cell-based, human
Details: SK-N-AS, normalized to CO-1589; for hGRN mRNA FC: Table 11, 48 hours; for 120 nM FC (GRN mRNA) / hGRN mRNA FC: 120 nM
In short: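 Fold change in GRN mRNA, by qPCR with GAPDH/PPIA housekeeping normalization, referenced to steric non-targeting control ASO(s) such as CO-1589. ASOs were transfected into SK-N-AS neuroblastoma cells in dose titrations (20 to 160 nM initially). Cells were harvested 48 hours post-transfection.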

Substance: CO-6407: ASO based on parent ASO CO-3462 (antisense TAGGAGAATCGCTTTGGGAG; 2'-MOE, 5-methylC, mixed PO/PS; listed as RNA; modified_base 1..3: mod_base = OTHER; note = Phosphorothioate linkage; modified_base 6..15: mod_base = OTHER; modified_base 1..9: mod_base = OTHER; modified_base 18..20: mod_bas)
- 30 nM FC (GRN mRNA) (Table 12): 1.1 FC
- 60 nM FC (GRN mRNA) (Table 12): 1.2 FC
- 120 nM FC (GRN mRNA) (Table 12): 1.6 FC

Substance: CO-6408: ASO based on parent ASO CO-3462 (antisense eT*eA*eG*eGeAeGeA*eA*eT*e[5mC]*eG*e[5mC]*eT*eTeTeGeG*eG*eA*eG)
- 30 nM FC (GRN mRNA) (Table 12): 1.0 FC
- 60 nM FC (GRN mRNA) (Table 12): 1.1 FC
- 120 nM FC (GRN mRNA) (Table 12): 1.5 FC

Substance: CO-6409: ASO based on parent ASO CO-3462 (antisense eT*eA*eGeG*eA*eGeA*eA*eTe[5mC]*eG*e[5mC]eT*eT*eTeG*eG*eGeA*eG)
- 30 nM FC (GRN mRNA) (Table 12): 1.1 FC
- 60 nM FC (GRN mRNA) (Table 12): 1.1 FC
- 120 nM FC (GRN mRNA) (Table 12): 1.5 FC

Substance: CO-6410: ASO based on parent ASO CO-3462 (antisense eT*eAeG*eG*eAeG*eA*eAeT*e[5mC]*eGe[5mC]*eT*eTeT*eG*eGeG*eA*eG)
- 30 nM FC (GRN mRNA) (Table 12): 1.1 FC
- 60 nM FC (GRN mRNA) (Table 12): 1.0 FC
- 120 nM FC (GRN mRNA) (Table 12): 1.6 FC

Substance: CO-6411: ASO based on parent ASO CO-3462 (antisense eT*eA*eGeGeA*eG*eA*eA*eT*e[5mC]*eG*e[5mC]*eT*eT*eT*eGeGeG*eA*eG)
- 30 nM FC (GRN mRNA) (Table 12): 1.1 FC
- 60 nM FC (GRN mRNA) (Table 12): 1.4 FC
- 120 nM FC (GRN mRNA) (Table 12): 1.8 FC

Substance: CO-6412: ASO based on parent ASOs CO-4363 and CO-4364 (antisense eG*eG*eA*e[5mC]*eT*dT*dG*dG*dG*dA*dG*dT*dG*dG*dT*dG*eA*e[5mC]*eT*eG*eA)
- 30 nM FC (GRN mRNA) (Table 13): 1.0 FC
- 60 nM FC (GRN mRNA) (Table 13): 0.8 FC
- 120 nM FC (GRN mRNA) (Table 13): 0.9 FC

Substance: CO-6413: ASO based on parent ASOs CO-4363 and CO-4364 (antisense eG*eG*eA*e[5mC]*eT*dT*dG*dG*eG*dA*dG*dT*eG*dG*dT*dG*eA*e[5mC]*eT*eG*eA)
- 30 nM FC (GRN mRNA) (Table 13): 1.0 FC
- 60 nM FC (GRN mRNA) (Table 13): 0.6 FC
- 120 nM FC (GRN mRNA) (Table 13): 0.7 FC

Substance: CO-6414: ASO based on parent ASOs CO-4363 and CO-4364 (antisense eG*eG*eA*l[5mC]*eT*lT*eG*lG*eG*lA*eG*lT*eG*lG*eT*lG*eA*l[5mC]*eT*eG*eA)
- 30 nM FC (GRN mRNA) (Table 13): 1.6 FC
- 60 nM FC (GRN mRNA) (Table 13): 1.4 FC
- 120 nM FC (GRN mRNA) (Table 13): 1.3 FC

Substance: CO-6415: ASO based on parent ASOs CO-4363 and CO-4364 (antisense eG*eG*eA*l[5mC]*eT*eT*lG*eG*eG*lA*eG*eT*lG*eG*eT*lG*eA*e[5mC]*lT*eG*eA)
- 30 nM FC (GRN mRNA) (Table 13): 1.3 FC
- 60 nM FC (GRN mRNA) (Table 13): 1.6 FC
- 120 nM FC (GRN mRNA) (Table 13): 1.6 FC

Substance: CO-6416: ASO based on parent ASOs CO-4363 and CO-4364 (eG*eG*lA*e[5mC]*eT*lT*eG*eG*lG*eA*eG*lT*eG*eG*lT*eG*eA*l[5mC]*eT*eG*eA)
- 30 nM FC (GRN mRNA) (Table 13): 1.4 FC
- 60 nM FC (GRN mRNA) (Table 13): 1.6 FC
- 120 nM FC (GRN mRNA) (Table 13): 2.2 FC

Substance: CO-6417: ASO based on parent ASOs CO-4363 and CO-4364 (eG*eG*eA*e[5mC]*lT*eT*eG*eG*lG*eA*eG*eT*lG*eG*eT*eG*lA*e[5mC]*eT*eG*eA)
- 30 nM FC (GRN mRNA) (Table 13): 1.4 FC
- 60 nM FC (GRN mRNA) (Table 13): 2.3 FC
- 120 nM FC (GRN mRNA) (Table 13): 2.8 FC

Substance: CO-6418: ASO based on parent ASOs CO-4363 and CO-4364 (eG*eG*eA*e[5mC]*eT*lT*eG*eG*eG*eA*lG*eT*eG*eG*eT*lG*eA*e[5mC]*eT*eG*eA)
- 30 nM FC (GRN mRNA) (Table 13): 1.6 FC
- 60 nM FC (GRN mRNA) (Table 13): 1.6 FC
- 120 nM FC (GRN mRNA) (Table 13): 1.9 FC

Substance: CO-6419: ASO based on parent ASOs CO-4363 and CO-4364 (eG*eG*eA*e[5mC]*eT*dT*dG*dG*dG*dA*dG*dT*dG*dG*dT*dG*dA*d[5mC]*eT*eG*eA*eA*e[5mC])
- 30 nM FC (GRN mRNA) (Table 13): 1.0 FC
- 60 nM FC (GRN mRNA) (Table 13): 1.0 FC
- 120 nM FC (GRN mRNA) (Table 13): 0.9 FC

Substance: CO-6420: ASO based on parent ASOs CO-4363 and CO-4364 (eG*eG*lA*e[5mC]*eT*lT*eG*eG*lG*eA*eG*lT*eG*eG*lT*eG*eA*l[5mC]*eT*eG*lA*eA*e[5mC])
- 30 nM FC (GRN mRNA) (Table 13): 1.4 FC
- 60 nM FC (GRN mRNA) (Table 13): 2.7 FC
- 120 nM FC (GRN mRNA) (Table 13): 2.2 FC

Substance: CO-6421: ASO based on parent ASOs CO-4363 and CO-4364 (eG*eG*eA*e[5mC]*eT*lT*eG*eG*eG*eA*eG*lT*eG*eG*eT*eG*eA*l[5mC]*eT*eG*eA*eA*e[5mC])
- 30 nM FC (GRN mRNA) (Table 13): 1.3 FC
- 60 nM FC (GRN mRNA) (Table 13): 2.1 FC
- 120 nM FC (GRN mRNA) (Table 13): 1.7 FC

Substance: CO-6422: ASO based on parent ASOs CO-4363 and CO-4364 (eG*eG*eA*l[5mC]*eT*eT*eG*lG*eG*eA*eG*lT*eG*eG*eT*lG*eA*e[5mC]*eT*lG*eA*eA*e[5mC])
- 30 nM FC (GRN mRNA) (Table 13): 1.9 FC
- 60 nM FC (GRN mRNA) (Table 13): 2.0 FC
- 120 nM FC (GRN mRNA) (Table 13): 2.1 FC

Substance: CO-6423: ASO based on parent ASOs CO-4363 and CO-4364 (eG*eG*eA*e[5mC]*lT*eT*eG*eG*eG*lA*eG*eT*eG*eG*lT*eG*eA*e[5mC]*eT*lG*eA*eA*e[5mC])
- 30 nM FC (GRN mRNA) (Table 13): 1.2 FC
- 60 nM FC (GRN mRNA) (Table 13): 2.6 FC
- 120 nM FC (GRN mRNA) (Table 13): 2.8 FC

Substance: CO-6425: ASO based on parent ASOs CO-4363 and CO-4364 (eG*eG*eG*eA*e[5mC]*eT*eT*eG*eG*eG*eA*eG*eT*eG*eG*eT*eG*eA*e[5mC]*eT*eG*eA*eA*e[5mC])
- 30 nM FC (GRN mRNA) (Table 13): 0.9 FC
- 60 nM FC (GRN mRNA) (Table 13): 1.3 FC
- 120 nM FC (GRN mRNA) (Table 13): 1.3 FC

Substance: CO-6426: ASO based on parent ASOs CO-4363 and CO-4364 (eG*eG*eA*e[5mC]*eT*eT*eG*eG*eG*eA*eG*eT*eG*eG*eT*eG*eA*e[5mC]*eT*eG*eA*eA*e[5mC]*e[5mC])
- 30 nM FC (GRN mRNA) (Table 13): 0.8 FC
- 60 nM FC (GRN mRNA) (Table 13): 1.5 FC
- 120 nM FC (GRN mRNA) (Table 13): 1.3 FC

Substance: CO-6427: ASO based on parent ASOs CO-4363 and CO-4364 (eG*eG*eG*eA*e[5mC]*eT*eT*eG*eG*eG*eA*eG*eT*eG*eG*eT*eG*eA*e[5mC]*eT*eG*eA*eA*e[5mC]*e[5mC])
- 30 nM FC (GRN mRNA) (Table 13): 1.2 FC
- 60 nM FC (GRN mRNA) (Table 13): 1.1 FC
- 120 nM FC (GRN mRNA) (Table 13): 1.2 FC

Substance: CO-6428: ASO based on parent ASOs CO-4363 and CO-4364 (eG*eG*eG*eA*e[5mC]*eT*eT*eG*eG*eG*eA*eG*eT*eG*eG*eT*eG*eA*e[5mC]*eT*eG*eA*eA*e[5mC]*e[5mC]*eT)
- 30 nM FC (GRN mRNA) (Table 13): 1.1 FC
- 60 nM FC (GRN mRNA) (Table 13): 1.4 FC
- 120 nM FC (GRN mRNA) (Table 13): 1.0 FC

Substance: CO-6429: ASO based on parent ASOs CO-4363 and CO-4364 (eA*eG*eG*eG*eA*e[5mC]*eT*eT*eG*eG*eG*eA*eG*eT*eG*eG*eT*eG*eA*e[5mC]*eT*eG*eA*eA*e[5mC]*e[5mC])
- 30 nM FC (GRN mRNA) (Table 13): 1.0 FC
- 60 nM FC (GRN mRNA) (Table 13): 1.5 FC
- 120 nM FC (GRN mRNA) (Table 13): 1.4 FC

Substance: CO-6430: ASO designed to target an intragenic enhancer RNA (eRNA) (eT*eG*e[5mC]*eG*e[5mC]*eA*e[5mC]*eA*e[5mC]*eA*eG*eG*eT*eA*e[5mC]*e[5mC]*eA*eG*eA*eG)
- hGRN mRNA FC: 1.0 FC

Substance: CO-6431: ASO designed to target an intragenic enhancer RNA (eRNA) (eA*e[5mC]*eG*eG*eA*e[5mC]*e[5mC]*eT*e[5mC]*e[5mC]*eT*e[5mC]*eA*e[5mC]*eT*eA*eA*eG*e[5mC]*eT)
- hGRN mRNA FC: 0.8 FC

Substance: CO-6432: ASO designed to target an intragenic enhancer RNA (eRNA) (eG*eA*eG*eA*eA*e[5mC]*eG*e[5mC]*eT*eA*e[5mC]*e[5mC]*eA*e[5mC]*eG*eG*eA*e[5mC]*e[5mC]*eT)
- hGRN mRNA FC: 1.0 FC

Substance: CO-6433: ASO designed to target an intragenic enhancer RNA (eRNA) (eG*e[5mC]*eA*e[5mC]*eT*eG*e[5mC]*eT*eG*e[5mC]*e[5mC]*e[5mC]*e[5mC]*e[5mC]*eA*eA*eG*eA*e[5mC]*eA)
- hGRN mRNA FC: 0.9 FC

Substance: CO-6434: ASO designed to target an intragenic enhancer RNA (eRNA) (eT*e[5mC]*e[5mC]*eG*eA*eT*e[5mC]*eA*e[5mC]*e[5mC]*eT*eG*e[5mC]*eA*e[5mC]*eT*eG*e[5mC]*eT*eG)
- hGRN mRNA FC: 0.9 FC

Substance: CO-6435: ASO designed to target an intragenic enhancer RNA (eRNA) (eA*eG*eG*e[5mC]*e[5mC]*eA*e[5mC]*e[5mC]*eT*eG*e[5mC]*eT*eG*e[5mC]*eT*e[5mC]*e[5mC]*eG*eA*eT)
- hGRN mRNA FC: 1.2 FC

Substance: CO-6436: ASO designed to target an intragenic enhancer RNA (eRNA) (eT*eG*eT*e[5mC]*e[5mC]*e[5mC]*e[5mC]*eA*e[5mC]*eT*e[5mC]*eA*eG*eG*e[5mC]*e[5mC]*eA*e[5mC]*e[5mC]*eT)
- hGRN mRNA FC: 1.1 FC

Substance: CO-6437: ASO designed to target an intragenic enhancer RNA (eRNA) (eG*eA*e[5mC]*eA*eA*eA*eG*eA*e[5mC]*e[5mC]*e[5mC]*eA*e[5mC]*e[5mC]*e[5mC]*e[5mC]*eT*eG*eT*e[5mC])
- hGRN mRNA FC: 1.1 FC

Substance: CO-6438: ASO designed to target an intragenic enhancer RNA (eRNA) (e[5mC]*eT*eA*e[5mC]*eT*eG*eA*eG*e[5mC]*e[5mC]*eT*eG*eG*eA*eA*eG*eT*eG*eA*e[5mC])
- hGRN mRNA FC: 1.2 FC
